In assay [1] the target is T1, Met repressor (Escherichia coli) (UniProt C3SIU2).
T1 sequence (whole entry): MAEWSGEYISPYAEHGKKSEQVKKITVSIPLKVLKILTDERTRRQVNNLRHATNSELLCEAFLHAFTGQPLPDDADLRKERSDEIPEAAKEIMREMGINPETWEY
Put plainly: Binding affinity to Escherichia coli metJ assessed as protein dimer-DNA complex formation using F-metC operator DNA by fluorescence anisotropy relative to 4-((((2R,3S,4R,5R)-5-(6-amino-9H-purin-9-yl)-3,4-dihydroxy-tetrahydrofuran-2-yl)methyl)(methyl)amino)-N-propylbutanamide.

For assay [2], the target named is T1, Met repressor (Escherichia coli). Put plainly: Binding affinity to Escherichia coli metJ assessed as protein dimer-DNA complex formation using F-metC operator DNA by fluorescence anisotropy relative to 5'-[{(3''S)-4''-Benzylamino-3''-amino-4''-oxobutyl}dimethylamino]-5'-deoxyadenosine iodide ditrifluoroacetic acid salt.
Another assay deals with T2, Met repressor (Escherichia coli, UniProt C3SIU2).
T2 sequence (C3SIU2 whole entry): T1 sequence (whole entry)
Put plainly: Binding affinity to Escherichia coli metJ in presence of operator DNA complex by filter binding study.

Structures are written as SMILES.

As to `CN(CCCC(=O)NCCCCCCNC(=O)CCCN(C)C[C@H]1O[C@@H](n2cnc3c(N)ncnc32)[C@H](O)[C@@H]1O)C[C@H]1O[C@@H](n2cnc3c(N)ncnc32)[C@H](O)[C@@H]1O`, the fold change (FC) in assay [1] is 21. `CN(CCCC(=O)NCCCCn1nnc2c1CCCCCC2OCCNC(=O)CCCN(C)C[C@H]1O[C@@H](n2cnc3c(N)ncnc32)[C@H](O)[C@@H]1O)C[C@H]1O[C@@H](n2cnc3c(N)ncnc32)[C@H](O)[C@@H]1O` (stereo partly specified): the fold change (FC) in assay [1] is 13.

Turning to `CN(CCCC(=O)NCCOC1CCCCCc2c1nnn2CCNC(=O)CCCN(C)C[C@H]1O[C@@H](n2cnc3c(N)ncnc32)[C@H](O)[C@@H]1O)C[C@H]1O[C@@H](n2cnc3c(N)ncnc32)[C@H](O)[C@@H]1O` (mixture of isomers), the fold change (FC) in assay [1] came to 9.1.

`C[N+](C)(CC[C@H](N)C(=O)NCc1ccc(CNC(=O)[C@@H](N)CC[N+](C)(C)C[C@H]2O[C@@H](n3cnc4c(N)ncnc43)[C@H](O)[C@@H]2O)cc1)C[C@H]1O[C@@H](n2cnc3c(N)ncnc32)[C@H](O)[C@@H]1O` (mixture of isomers): the fold change (FC) in assay [2] came out at 2.4. Take `C[N+](C)(CC[C@H](N)C(=O)NCc1cccc(CNC(=O)[C@@H](N)CC[N+](C)(C)C[C@H]2O[C@@H](n3cnc4c(N)ncnc43)[C@H](O)[C@@H]2O)c1)C[C@H]1O[C@@H](n2cnc3c(N)ncnc32)[C@H](O)[C@@H]1O` (mixture of isomers): the fold change (FC) in assay [2] turned out to be 3.6.

Take `C[S+](CC[C@H](N)C(=O)[O-])C[C@H]1O[C@@H](n2cnc3c(N)ncnc32)[C@H](O)[C@@H]1O` (stereo partly specified) [ADEMETIONINE]: the Kd on Met repressor turned out to be 4 nM.

For the origin of these results see ChEMBL document CHEMBL1938273, “Design, synthesis and in vitro evaluation of novel bivalent S-adenosylmethionine analogues” (Bioorg Med Chem Lett, 2012).
